Experimental data taken from the NIST ThermoML archive (doi:10.1021/je200787v).
Values joined by “and” are separate entries in the source; they are usually repeats but may differ in a detail not shown here. Equal values may be shown once.

What was measured:
[1] = Liquid
[2] = xn = mol fraction of the nth substance listed; conditions: Liquid; for viscosity: Falling or rolling sphere viscometry; for mass density: Vibrating tube method

CCCCCCCCCCCCCCCCCC [octadecane]
[1]
Conditions	mass density
323.1 K	757 kg/m3 [middle of 4 runs]
323.3 K	756 kg/m3 and 757 kg/m3
372.8 K	734 kg/m3 [middle of 6 runs]
422.5 K	703 kg/m3 and 704 kg/m3
422.6 K	700 kg/m3 [middle of 6 runs]

CCCCCCCCCCCCCCCCCC [octadecane] + CC
[2]
Conditions	mass density [kg/m3]	viscosity [mPa·s]
323.1 K, x2 = 0.27	732	1.59
323.1 K, x2 = 0.415	715	1.09
323.1 K, x2 = 0.789	606	0.31
323.1 K, x2 = 0.844	572	0.23
323.3 K, x2 = 0.546	691	0.81
323.3 K, x2 = 0.654	662	0.55
372.8 K, x2 = 0.127	719	0.87
372.8 K, x2 = 0.298	703	0.7
372.8 K, x2 = 0.372	692	0.62
372.8 K, x2 = 0.474	676	0.52
372.8 K, x2 = 0.536	664	0.46
372.8 K, x2 = 0.599	648	0.39
372.8 K, x2 = 0.666	628	0.32
372.8 K, x2 = 0.701	614	0.29
422.5 K, x2 = 0.547	624	0.29
422.5 K, x2 = 0.588	613	0.27
422.6 K, x2 = 0.096	688	0.55
422.6 K, x2 = 0.194	679	0.49
422.6 K, x2 = 0.296	667	0.43
422.6 K, x2 = 0.365	659	0.4
422.6 K, x2 = 0.427	648	0.37
422.6 K, x2 = 0.477	640	0.33
